Assay results: US9932637B2, “Genetic polymorphisms associated with cardiovascular disorders and drug response, methods of detection and uses thereof” (CELERA CORPORATION, priority 2003, dated 2018)

System: patients with prior myocardial infarction (CARE study)
Assay: CARE: association of SNPs with pravastatin treatment in cardiovascular events prevention (logistic regression, odds ratio pravastatin vs placebo by genotype; Table 8)
Assay type: in vivo, human
Details: for Fatal/Non-fatal Cerebrovascular Disease, Prava vs. Placebo Odds Ratio (95% CI): ABCA1 hCV2741051, All Patients; for 1st Stroke Occurred During CARE, n/total (%) / Any Report of Stroke During CARE, n/total (%) / Fatal/Non-fatal Cerebrovascular Disease, n/total (%) / Prava vs. Placebo Odds Ratio, 0 Rare Alleles / Prava vs. Placebo Odds Ratio, 1 Rare Alleles / Prava vs. Placebo Odds Ratio, 2 Rare Alleles / Odds ratio pravastatin vs placebo / Fatal CHD/Definite Non-fatal MI, n/total (%) / Hosp. for Unstable Angina, n/total (%) / Total Coronary Heart Disease Events, n/total (%): All Patients; for 1st Stroke Occurred During CARE, n/total (%) / Any Report of Stroke During CARE, n/total (%) / Fatal/Non-fatal Cerebrovascular Disease, n/total (%) / Fatal CHD/Definite Non-fatal MI, n/total (%) / Hosp. for Unstable Angina, n/total (%) / Total Coronary Heart Disease Events, n/total (%): Prava; for Catheterization, n/total (%): ABCC8 hCV600632, All Patients; for Catheterization, n/total (%) / Nonfatal MI (Probable/Definite), n/total (%) / Nonfatal MI (def & prob), n/total (%): Prava arm
Description: In order to identify genetic markers associated with acute coronary events (e.g. MI, stroke, unstable angina, congestive heart failure, etc.) or response to statin treatment for the prevention of coronary events, samples from the Cholesterol and Recurrent Events (CARE) study (a randomized multicentral double-blinded trial on secondary prevention of acute coronary events with pravastatin) (Sacks et al., 1991, Am. J. Cardiol. 68: 1436-1446) were genotyped. A well-documented myocardial infarction (MI) was one of the enrollment criteria for entry into the CARE study. Patients were enrolled in the CARE trial from 80 participating study centers. […] Patients were randomized to receive either 40 mg of pravastatin once daily or a matching placebo. The primary endpoint of the trial was death from coronary heart disease and the median duration of follow-up was 5.0 years (range, 4.0 to 6.2 years). […] Secondary endpoints of other related cardiovascular or metabolic disease events, and changes in clinical variables were also recorded in pravastatin-treated and placebo groups. All individuals included in the study had signed a written informed consent form and the study protocol was approved by the respective Institutional Review Boards (IRBs).
For genotyping SNPs in CARE patient samples, DNA was extracted from blood samples using conventional DNA extraction methods such as the QIA-amp kit from Qiagen. Genotypes were obtained on an ABI PRISM® 7900HT Sequence Detection PCR system (Applied Biosystems, Foster City, Calif.) by kinetic allele-specific PCR, similar to the method described by Germer et al. (Germer S., Holland M. J., Higuchi R. 2000, Genome Res. 10: 258-266).
Statistical analysis for association of SNPs with pravastatin treatment in cardiovascular events prevention (Table 8) was carried out using an overall logistic regression model that included an intercept, a parameter for the effect of a genotype containing two rare alleles versus a genotype containing no rare alleles, a parameter for the effect of a genotype containing one rare allele versus a genotype containing no rare alleles, a parameter for the effect of use of pravastatin versus the use of placebo, and parameters for the interaction effects between SNP genotypes and pravastatin use. The test of the overall model is a chi-square test with two degrees of freedom for analyses containing all three genotypes, and one degree of freedom for analyses containing two genotypes.
Effect sizes were estimated through odds ratios (pravastatin group versus placebo) for carriers of each genotype (groups of 0, 1, and 2 minor allele carriers). The effect was considered to be significant if p-value for testing whether any of the interactions between SNP genotypes and pravastatin use were <0.05. […] Odds ratios less than one indicate that the specific SNP allele has a protective effect and odds ratios greater than one indicate that the specific SNP allele has an adverse effect.

[1] = ABCA1 hCV2741051, 1 Rare Allele, n/total 5/651
[2] = ABCA1 hCV2741051, 1st Stroke Occurred During CARE
[3] = ABCA1 hCV2741051, 2 Rare Alleles, n/total 2/127
[4] = ABCA1 hCV2741051, Any Report of Stroke During CARE
[5] = ADAMTS13 hCV11571465, All Patients, 0 Rare Alleles
[6] = ADAMTS13 hCV11571465, All Patients, 1 Rare Allele
[7] = ADAMTS13 hCV11571465, All Patients, 2 Rare Alleles
[8] = AGTR1 hCV3187716, Fatal CHD/Definite Non-fatal MI
[9] = AGTR1 hCV3187716, Hosp. for Unstable Angina
[10] = AGTR1 hCV3187716, Total Coronary Heart Disease Events

CC[C@H](C)C(=O)O[C@H]1C[C@H](O)C=C2C=C[C@H](C)[C@H](CC[C@@H](O)C[C@@H](O)CC(=O)O)[C@H]21 [pravastatin]
Fatal/Non-fatal Cerebrovascular Disease, Prava vs. Placebo Odds Ratio (95% CI) (0 Rare Alleles): 0.98 | Fatal/Non-fatal Cerebrovascular Disease, Prava vs. Placebo Odds Ratio (95% CI) (1 Rare Alleles): 0.43 | Fatal/Non-fatal Cerebrovascular Disease, Prava vs. Placebo Odds Ratio (95% CI) (2 Rare Alleles): 0.26 | 1st Stroke Occurred During CARE, n/total (%) (ABCA1 hCV2741051, 0 Rare Alleles, n/total 26/730): (3.6%) | Any Report of Stroke During CARE, n/total (%) (ABCA1 hCV2741051, 0 Rare Alleles, n/total 27/730): (3.7%) | Fatal/Non-fatal Cerebrovascular Disease, n/total (%) (ABCA1 hCV2741051, 0 Rare Alleles, n/total 51/730): (7.0%) | 1st Stroke Occurred During CARE, n/total (%) [1]: (0.8%) | Any Report of Stroke During CARE, n/total (%) [1]: (0.8%) | Fatal/Non-fatal Cerebrovascular Disease, n/total (%) (ABCA1 hCV2741051, 1 Rare Allele, n/total 18/651): (2.8%) | Prava vs. Placebo Odds Ratio, 0 Rare Alleles [2]: 0.98 | Prava vs. Placebo Odds Ratio, 1 Rare Alleles [2]: 0.26 | Prava vs. Placebo Odds Ratio, 2 Rare Alleles [2]: 0.23 | 1st Stroke Occurred During CARE, n/total (%) [3]: (1.6%) | Any Report of Stroke During CARE, n/total (%) [3]: (1.6%) | Fatal/Non-fatal Cerebrovascular Disease, n/total (%) (ABCA1 hCV2741051, 2 Rare Alleles, n/total 3/127): (2.4%) | Prava vs. Placebo Odds Ratio, 0 Rare Alleles [4]: 0.92 | Prava vs. Placebo Odds Ratio, 1 Rare Alleles [4]: 0.21 | Prava vs. Placebo Odds Ratio, 2 Rare Alleles [4]: 0.23 | Catheterization, n/total (%) (0 Rare Alleles): (12.0%) | Catheterization, n/total (%) (1 Rare Allele): (8.8%) | Catheterization, n/total (%) (2 Rare Alleles): (10.2%) | Odds ratio pravastatin vs placebo (ABCC8 hCV600632, Catheterization, 0 rare alleles): 1.21 | Odds ratio pravastatin vs placebo (ABCC8 hCV600632, Catheterization, 1 rare allele): 0.55 | Odds ratio pravastatin vs placebo (ABCC8 hCV600632, Catheterization, 2 rare alleles): 0.81 | Nonfatal MI (Probable/Definite), n/total (%) [5]: (9.1%) | Nonfatal MI (def & prob), n/total (%) [5]: (9.1%) | Nonfatal MI (Probable/Definite), n/total (%) [6]: (10.3%) | Nonfatal MI (def & prob), n/total (%) [6]: (9.6%) | Nonfatal MI (Probable/Definite), n/total (%) [7]: (6.6%) | Nonfatal MI (def & prob), n/total (%) [7]: (6.2%) | Odds ratio pravastatin vs placebo (ADAMTS13 hCV11571465, Nonfatal MI (Probable/Definite), 0 rare alleles): 0.62 | Odds ratio pravastatin vs placebo (ADAMTS13 hCV11571465, Nonfatal MI (Probable/Definite), 1 rare allele): 0.88 | Odds ratio pravastatin vs placebo (ADAMTS13 hCV11571465, Nonfatal MI (Probable/Definite), 2 rare alleles): 0.38 | Odds ratio pravastatin vs placebo (ADAMTS13 hCV11571465, Nonfatal MI (def & prob), 0 rare alleles): 0.65 | Odds ratio pravastatin vs placebo (ADAMTS13 hCV11571465, Nonfatal MI (def & prob), 1 rare allele): 0.91 | Odds ratio pravastatin vs placebo (ADAMTS13 hCV11571465, Nonfatal MI (def & prob), 2 rare alleles): 0.37 | Fatal CHD/Definite Non-fatal MI, n/total (%) (AGTR1 hCV3187716, 0 Rare Alleles, n/total 63/769): (8.2%) | Hosp. for Unstable Angina, n/total (%) (AGTR1 hCV3187716, 0 Rare Alleles, n/total 120/769): (15.6%) | Total Coronary Heart Disease Events, n/total (%) (AGTR1 hCV3187716, 0 Rare Alleles, n/total 227/769): (29.5%) | Fatal CHD/Definite Non-fatal MI, n/total (%) (AGTR1 hCV3187716, 1 Rare Allele, n/total 72/625): (11.5%) | Hosp. for Unstable Angina, n/total (%) (AGTR1 hCV3187716, 1 Rare Allele, n/total 103/625): (16.5%) | Total Coronary Heart Disease Events, n/total (%) (AGTR1 hCV3187716, 1 Rare Allele, n/total 194/625): (31.0%) | Fatal CHD/Definite Non-fatal MI, n/total (%) (AGTR1 hCV3187716, 2 Rare Alleles, n/total 5/120): (4.2%) | Hosp. for Unstable Angina, n/total (%) (AGTR1 hCV3187716, 2 Rare Alleles, n/total 8/120): (6.7%) | Total Coronary Heart Disease Events, n/total (%) (AGTR1 hCV3187716, 2 Rare Alleles, n/total 20/120): (16.7%) | Prava vs. Placebo Odds Ratio, 0 Rare Alleles [8]: 0.63 | Prava vs. Placebo Odds Ratio, 1 Rare Alleles [8]: 0.95 | Prava vs. Placebo Odds Ratio, 2 Rare Alleles [8]: 0.24 | Prava vs. Placebo Odds Ratio, 0 Rare Alleles [9]: 0.89 | Prava vs. Placebo Odds Ratio, 1 Rare Alleles [9]: 0.90 | Prava vs. Placebo Odds Ratio, 2 Rare Alleles [9]: 0.27 | Prava vs. Placebo Odds Ratio, 0 Rare Alleles [10]: 0.80 | Prava vs. Placebo Odds Ratio, 1 Rare Alleles [10]: 0.82 | Prava vs. Placebo Odds Ratio, 2 Rare Alleles [10]: 0.38 | Nonfatal MI (Probable/Definite), n/total (%) (APOE hCV905013, All Patients, 0 Rare Alleles): (8.4%) | Nonfatal MI (Probable/Definite), n/total (%) (APOE hCV905013, All Patients, 1 Rare Allele): (10.4%) | Nonfatal MI (Probable/Definite), n/total (%) (APOE hCV905013, All Patients, 2 Rare Alleles): (7.8%) | Odds ratio pravastatin vs placebo (APOE hCV905013, Nonfatal MI (Probable/Definite), 0 rare alleles): 0.51
